In patent US20260262643A1, “HERBICIDAL BENZOXAZINES” (FMC CORPORATION, priority 2022, published 2026):

Key:
soybean [1] = assay: Test C preemergence; assay type: in vivo, Glycine max; settings: 0 to 100 scale (0 no effect, 100 complete control)
In short: (§1)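 Seeds in loam–sand blend received preemergence directed soil spray of test chemicals in non-phytotoxic solvent with surfactant; postemergence treatment was applied at one- to two-leaf stage (2–10 cm). After 10 days in greenhouse, injury rated visually versus untreated controls, 0 (no effect) to 100 (complete control).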

barnyardgrass [2] = assay: Test C postemergence; assay type: in vivo, Echinochloa crusgalli; settings: 10 days
In short: as §1

oat, wild [3] = assay: Test C preemergence; assay type: in vivo, Avena fatua; settings: 0 to 100 scale (0 no effect, 100 complete control)
In short: as §1

wheat [4] = assay: Test C postemergence; assay type: in vivo, Triticum aestivum; settings: 10 days
In short: as §1

galium = assay: Test C postemergence; assay type: in vivo, Galium aparine; settings: 10 days
In short: as §1

green foxtail [5] = assay: Test C postemergence; assay type: in vivo, Setaria viridis; settings: 10 days
In short: as §1

sedge, umbrella = assay: Test D flooded paddy test; assay type: in vivo, Cyperus difformis; settings: 250 g ai/ha, applied to paddy water, visual rating after 13 to 14 days, scale 0 to 100 (0 no effect, 100 complete control)
In short: (§2)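 Seedlings reached the 2-leaf stage, then pots were flooded to 3 cm over the soil surface. Compound was applied into the water, depth was maintained, and plants stayed in the greenhouse 13 to 14 days before visual scoring (0–100) relative to controls.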

ryegrass, Italian [6] = assay: Test C postemergence; assay type: in vivo, Lolium multiflorum; settings: 10 days
In short: as §1

kochia [7] = assay: Test C preemergence; assay type: in vivo, Bassia scoparia; settings: 0 to 100 scale (0 no effect, 100 complete control)
In short: as §1

ragweed [8] = assay: Test C postemergence; assay type: in vivo, Ambrosia artemisiifolia; settings: 10 days
In short: as §1

green foxtail [9] = assay: Test C preemergence; assay type: in vivo, Setaria viridis; settings: 0 to 100 scale (0 no effect, 100 complete control)
In short: as §1

pigweed, palmer [10] = assay: Test C preemergence; assay type: in vivo, Amaranthus palmeri; settings: 0 to 100 scale (0 no effect, 100 complete control)
In short: as §1

barnyardgrass [11] = assay: Test C preemergence; assay type: in vivo, Echinochloa crusgalli; settings: 0 to 100 scale (0 no effect, 100 complete control)
In short: as §1

corn [12] = assay: Test C preemergence; assay type: in vivo, Zea mays; settings: 0 to 100 scale (0 no effect, 100 complete control)
In short: as §1

wheat [13] = assay: Test C preemergence; assay type: in vivo, Triticum aestivum; settings: 0 to 100 scale (0 no effect, 100 complete control)
In short: as §1

corn [14] = assay: Test C postemergence; assay type: in vivo, Zea mays; settings: 10 days
In short: as §1

blackgrass [15] = assay: Test C postemergence; assay type: in vivo, Alopecurus myosuroides; settings: 10 days
In short: as §1

rice = assay: Test D flooded paddy test; assay type: in vivo, Oryza sativa; settings: 250 g ai/ha, applied to paddy water, visual rating after 13 to 14 days, scale 0 to 100 (0 no effect, 100 complete control)
In short: as §2

ryegrass, Italian [16] = assay: Test C preemergence; assay type: in vivo, Lolium multiflorum; settings: 0 to 100 scale (0 no effect, 100 complete control)
In short: as §1

oat, wild [17] = assay: Test C postemergence; assay type: in vivo, Avena fatua; settings: 10 days
In short: as §1

ragweed [18] = assay: Test C preemergence; assay type: in vivo, Ambrosia artemisiifolia; settings: 0 to 100 scale (0 no effect, 100 complete control)
In short: as §1

soybean [19] = assay: Test C postemergence; assay type: in vivo, Glycine max; settings: 10 days
In short: as §1

blackgrass [20] = assay: Test C preemergence; assay type: in vivo, Alopecurus myosuroides; settings: 0 to 100 scale (0 no effect, 100 complete control)
In short: as §1

horseweed = assay: Test C postemergence; assay type: in vivo, Erigeron canadensis; settings: 10 days
In short: as §1

barnyardgrass [21] = assay: Test D flooded paddy test; assay type: in vivo, Echinochloa crus-galli; settings: 250 g ai/ha, applied to paddy water, visual rating after 13 to 14 days, scale 0 to 100 (0 no effect, 100 complete control)
In short: as §2

kochia [22] = assay: Test C postemergence; assay type: in vivo, Bassia scoparia; settings: 10 days
In short: as §1

pigweed, palmer [23] = assay: Test C postemergence; assay type: in vivo, Amaranthus palmeri; settings: 10 days
In short: as §1

ducksalad = assay: Test D flooded paddy test; assay type: in vivo, Heteranthera limosa; settings: 250 g ai/ha, applied to paddy water, visual rating after 13 to 14 days, scale 0 to 100 (0 no effect, 100 complete control)
In short: as §2

[24] = Preemergence, 500 g ai/ha, visual rating after 10 days
[25] = Test C, preemergence, 125 g ai/ha
[26] = 125 g ai/ha, postemergence, 0 to 100 scale, 0 no effect, 100 complete control
[27] = Postemergence, 500 g ai/ha, visual 0 to 100 scale (0 no effect, 100 complete control)

In the case of CCn1cnc(-c2cccc(C(=O)N3C[C@H](C)Oc4c(Cl)cccc43)c2)n1 [Compound 173], the “Plant response rating, Soybean” value (soybean [1]; [24]) is reported as 0, the “Soybean plant response rating” value (soybean [1]; [25]) is reported as 0 and the “Plant response rating, Barnyardgrass” value (barnyardgrass [2]; [26]) is reported as 10. For the same compound, the “Plant response rating, Barnyardgrass” value (barnyardgrass [2]; [27]) was 10, the “Plant response rating, Oat, Wild” value (oat, wild [3]; [24]) was 0 and the “Oat, Wild plant response rating” value (oat, wild [3]; [25]) was 0. For the same compound, the “Plant response rating, Wheat” value (wheat [4]; [26]) was 0, the “Plant response rating, Wheat” value (wheat [4]; [27]) was 0 and the “Plant response rating, Galium” value (galium; [26]) was 20. The “Plant response rating, Galium” value (galium; [27]) was 50, the “Plant response rating, Foxtail, Green” value (green foxtail [5]; [26]) was 0 and the “Plant response rating, Foxtail, Green” value (green foxtail [5]; [27]) was 40. For the same compound, the “Plant response rating, Sedge, Umbrella (Flood)” value (sedge, umbrella) was 0, the “Plant response rating, Ryegrass, Italian” value (ryegrass, Italian [6]; [26]) was 0 and the “Plant response rating, Ryegrass, Italian” value (ryegrass, Italian [6]; [27]) was 0. The “Plant response rating, Kochia” value (kochia [7]; [24]) was 0, the “Kochia plant response rating” value (kochia [7]; [25]) was 0 and the “Plant response rating, Ragweed” value (ragweed [8]; [26]) was 0. For the same compound, the “Plant response rating, Ragweed” value (ragweed [8]; [27]) was 30, the “Plant response rating, Foxtail, Green” value (green foxtail [9]; [24]) was 0 and the “Foxtail, Green plant response rating” value (green foxtail [9]; [25]) was 0. For the same compound, the “Plant response rating, Pigweed, Palmer” value (pigweed, palmer [10]; [24]) was 0, the “Pigweed, Palmer plant response rating” value (pigweed, palmer [10]; [25]) was 0 and the “Plant response rating, Barnyardgrass” value (barnyardgrass [11]; [24]) was 0. For the same compound, the “Barnyardgrass plant response rating” value (barnyardgrass [11]; [25]) was 0, the “Plant response rating, Corn” value (corn [12]; [24]) was 0 and the “Corn plant response rating” value (corn [12]; [25]) was 0. The “Plant response rating, Wheat” value (wheat [13]; [24]) was 0, the “Wheat plant response rating” value (wheat [13]; [25]) was 0 and the “Plant response rating, Corn” value (corn [14]; [26]) was 0. The “Plant response rating, Corn” value (corn [14]; [27]) was 0, the “Plant response rating, Blackgrass” value (blackgrass [15]; [26]) was 0 and the “Plant response rating, Blackgrass” value (blackgrass [15]; [27]) was 0. For the same compound, the “Plant response rating, Rice (Flood)” value (rice) was 0, the “Plant response rating, Ryegrass, Italian” value (ryegrass, Italian [16]; [24]) was 50 and the “Ryegrass, Italian plant response rating” value (ryegrass, Italian [16]; [25]) was 20. The “Plant response rating, Oat, Wild” value (oat, wild [17]; [26]) was 0, the “Plant response rating, Oat, Wild” value (oat, wild [17]; [27]) was 0 and the “Plant response rating, Ragweed” value (ragweed [18]; [24]) was 60. The “Ragweed plant response rating” value (ragweed [18]; [25]) was 30, the “Plant response rating, Soybean” value (soybean [19]; [26]) was 0 and the “Plant response rating, Soybean” value (soybean [19]; [27]) was 30. For the same compound, the “Plant response rating, Blackgrass” value (blackgrass [20]; [24]) was 0, the “Blackgrass plant response rating” value (blackgrass [20]; [25]) was 0 and the “Plant response rating, Horseweed” value (horseweed; [26]) was 10. For the same compound, the “Plant response rating, Horseweed” value (horseweed; [27]) was 10, the “Plant response rating, Barnyardgrass (Flood)” value (barnyardgrass [21]) was 0 and the “Plant response rating, Kochia” value (kochia [22]; [26]) was 0. The “Plant response rating, Kochia” value (kochia [22]; [27]) was 30, the “Plant response rating, Pigweed, Palmer” value (pigweed, palmer [23]; [26]) was 0 and the “Plant response rating, Pigweed, Palmer” value (pigweed, palmer [23]; [27]) was 20. The “Plant response rating, Ducksalad (Flood)” value (ducksalad) was 0.
